Measurements as given in ChEMBL document CHEMBL1132753, “Structure-activity relationship study of asiatic acid derivatives against beta amyloid (A beta)-induced neurotoxicity” (2000).

Tested on: B103 cell line
Test: In vitro percent protective effect against Amyloid Beta(A beta)-induced neurotoxicity in B103 cells
Assay type: functional, Rattus norvegicus
Set-up: concentration or dose not given beside the values

Compared with `C[C@@H]1CC[C@]2(C(=O)O)CC[C@]3(C)C(=CCC4[C@@]5(C)CC(=O)[C@H](O)[C@@](C)(CO)C5CC[C@]43C)C2[C@H]1C` (stereo partly specified), `C[C@H]1[C@H](C)CC[C@]2(C(=O)O)CC[C@]3(C)C(=CC[C@@H]4[C@@]5(C)C[C@@H](O)[C@H](O)[C@@](C)(CO)[C@@H]5CC[C@]43C)[C@H]12` [ASIATIC ACID] is higher in Protection: 50% for the first, 97% for the second.

First: CC(=O)O[C@@H]1C[C@@]2(C)C(CC[C@]3(C)C2CC=C2C4[C@@H](C)[C@H](C)CC[C@]4(C(=O)O)CC[C@]23C)[C@](C)(CO)[C@H]1O (stereo partly specified)
Second: COC(=O)[C@]12CC[C@@H](C)[C@H](C)C1C1=CCC3[C@@]4(C)C[C@@H](O)[C@H](O)[C@@](C)(CO)C4CC[C@@]3(C)[C@]1(C)CC2 (stereo partly specified)
The Protection of the first is lower: 22% for the first, 58% for the second.

First: CCCCCCCCOCOC(=O)[C@]12CC[C@@H](C)[C@H](C)C1C1=CCC3[C@@]4(C)CC(O)[C@H](O)[C@@](C)(CO)C4CC[C@@]3(C)[C@]1(C)CC2 (stereo partly specified)
Second: C[C@@H]1CC[C@]2(C(=O)OC3CCCCO3)CC[C@]3(C)C(=CCC4[C@@]5(C)C[C@@H](O)[C@H](O)[C@@](C)(CO)C5CC[C@]43C)C2[C@H]1C (stereo partly specified)
The Protection of the first is lower: 22% for the first, 92% for the second.

First: C[C@@H]1CC[C@]2(C(=O)O)CC[C@]3(C)C(=CCC4[C@@]5(C)C[C@@H](O)[C@@H]6OC(C)(C)OC[C@@]6(C)C5CC[C@]43C)C2[C@H]1C (stereo partly specified)
Second: C[C@@H]1CC[C@]2(C(=O)O)CC[C@]3(C)C(=CCC4[C@@]5(C)CCCC(C)(C)C5CC[C@]43C)C2[C@H]1C (stereo partly specified)
The Protection of the first is higher: 66% for the first, 40% for the second.

First: C[C@H]1[C@H](C)CC[C@]2(C(=O)O)CC[C@]3(C)C(=CC[C@@H]4[C@@]5(C)CC[C@H](O)[C@@](C)(CO)[C@@H]5CC[C@]43C)[C@H]12
Second: C[C@H]1[C@H](C)CC[C@]2(C(=O)O)CC[C@]3(C)C(=CC[C@@H]4[C@@]5(C)C[C@@H](O)[C@H](O)[C@@](C)(CO)[C@@H]5[C@H](O)C[C@]43C)[C@H]12 [MADECASSIC ACID]
The Protection of the first is higher: 87% for the first, 56% for the second.

`C[C@H]1[C@H](C)CC[C@]2(C(=O)O[C@@H]3O[C@H](CO[C@@H]4O[C@H](CO)[C@@H](O[C@@H]5O[C@H](C)[C@H](O)[C@@H](O)[C@H]5O)[C@H](O)[C@H]4O)[C@@H](O)[C@H](O)[C@H]3O)CC[C@]3(C)C(=CC[C@@H]4[C@@]5(C)C[C@@H](O)[C@H](O)[C@@](C)(CO)[C@@H]5CC[C@]43C)[C@H]12` [ASIATICOSIDE] showed a Protection of 24%.
